From patent publication US8741871B2, “Trehalose compound, method for producing same, and pharmaceutical product containing the compound” (priority 2008, dated 2014)

Experiments:
THP-1 cells = experiment: Analysis of cytotoxicity to THP-1 cells using trypan blue; type: cell-based, human; conditions: treated for 2 hours and for 24 hours; FIG. 10
Experimental: The cultured THP-1 cells were transferred into a 50-ml centrifuge tube in a clean bench. The cells were then centrifuged at 1,000 rpm for 5 minutes at 20° C., and the supernatant was then removed. […] 10 μl of this cell suspension was added to a sterile Eppendorf tube, to which 990 μl of serum-free RPMI 1640 medium had previously been added, so that the solution was 100-fold diluted. The number of cells in 10 μl of the 100-fold diluted solution was counted with a blood cell counter, and the cell suspension was diluted with serum-free RPMI 1640 medium to a cell density of 1×10^7 cells/ml.
A test compound (Example 9)/DMSO solution, or DMSO was added to 100 μl of RPMI medium to a concentration of 200 μM. Thereafter, ultrasonic wave was applied to the mixture for 5 seconds. It is to be noted that a test compound, 6-O-(2-decyldecanoyl)-α-glucose (hereinafter referred to as a “control compound B”), and TDCM were used to prepare positive controls in the same manner as described above. In addition, a negative control was prepared by adding no test compounds (vehicle). […] Subsequently, 20 μl of 0.3% trypan blue/PBS (−) was added to the reaction solution so as to suspend the reaction solution therein, and thereafter, the survival rate of the cells was immediately analyzed using a cell number measuring apparatus (CYRORECON).

[1] = tested on: IL-6, TNF-α, IFN-γ in mouse plasma; experiment: Measurement of IL-6, TNF-α and IFN-γ released into peripheral blood of test compound administered mouse; conditions: 100 μg/mouse intravenous, two hours later; for IL-6-releasing activity (mouse plasma IL-6 concentration) compared with TDCM: FIG. 6; for IFN-γ-releasing activity (mouse plasma IFN-γ concentration) compared with TDCM: FIG. 7
[2] = tested on: Welch bacillus toxin (recombinant α-toxin); conditions: in vivo, ip
[3] = tested on: Welch bacillus (Type A; NTCT8237); type: in vivo; conditions: 100 μg/mouse i.p. three hours before Welch bacillus 2.4×10^7 cells/mouse i.p.
Experimental: As test compounds, 1 mg each of the compound synthesized by the method described in Production Example α-1 and TDCM were weighed. Emulsion solutions of the test compounds (1 mg/ml) were prepared in the same manner as described above.
[…] of Brain Heart Infusion (BHI) (Difco) powders were dissolved in 200 ml of distilled water. 40 ml of the obtained solution (hereinafter this solution is referred to as a “BHI medium”) was withdrawn with a measuring pipette, and it was then added to a 200-ml flask, followed by performing a high-pressure steam sterilization (121° C., 20 minutes). In addition, 5 ml of the BHI medium was added to two screw-top test tubes, and they were then subjected to a high-pressure steam sterilization. Moreover, a glass tube-equipped rubber plug (with a cotton plug) and a glass tube were also subjected to a high-pressure steam sterilization. In a clean bench, an appropriate amount of bacteria for preservation, which had grown on a cooked meat medium, was collected with a sterilized Pasteur pipette, and it was then inoculated on the BHI medium in the aforementioned sterilized screw-top test tube. Subsequently, it was incubated at 37° C. overnight.
In a clean bench, bacteria that had grown in the screw-top test tube (wherein the inside of the […] in which bacteria had grown became clouded, and gas was generated) was transferred into a 200-ml Erlenmeyer flask, which contained 40 ml of BHI medium. A glass tube was inserted into the medium, so as to carry out nitrogen substitution for 10 minutes. Subsequently, the glass tube-equipped rubber plug (with a cotton plug) was equipped in the Erlenmeyer flask (since Welch bacillus generates gas, it is necessary to make an air vent), and incubation was then carried out at 37° C. for 4 to 5 hours. Thereafter, the cultured Welch bacillus was transferred into a centrifuge tube, it was then centrifuged (9000 rpm, 15 minutes), and the supernatant was then removed. 20 ml of sterilized normal saline solution was added to the precipitate, so that the bacteria were suspended therein. The suspension was centrifuged (9000 rpm, 15 minutes), and the supernatant was then removed.
Mice (ICR, 6-week-old) were divided into three groups, and the following test was then carried out.
An emulsion solution containing the test compound, an emulsion solution containing TDCM, or an emulsion solution alone, which was to be used as a control, was intraperitoneally administered in an amount of 100 μg/mouse to a group of four mice (100 μl/mouse, in the case of the emulsion solution alone). Three hours later, Welch bacillus (2.4×10^7 cells/mouse) was intraperitoneally administered to the mice. Thereafter, the condition of the mice was observed.

[4] = tested on: Salmonella typhmurium TA98; experiment: Mutagenicity test (Ames test); conditions: TA98, in the presence or absence of S9 mix; FIG. 11

Structure (SMILES): CCCCCCCCCCC(CCCCCCCC)C(=O)OC[C@H]1O[C@H](O)[C@H](O)[C@@H](O)[C@@H]1O (stereo partly drawn) [control compound B, 6-O-(2-decyldecanoyl)-α-glucose, reference compound]
- cytotoxicity to THP-1 cells (survival rate, trypan blue staining) (THP-1 cells): cytotoxicity was observed

Structure (SMILES): CCCCCCCCCCCCCC(CCCCCCCCCCCCC)CC(=O)OCC1O[C@H](O[C@H]2OC(COC(=O)CC(CCCCCCCCCCCCC)CCCCCCCCCCCCC)[C@@H](O)C(O)C2O)C(O)C(O)[C@@H]1O (stereo partly drawn) [Example 13, 6,6′-bis-O-(3-tridecylhexadecanoyl)-α,α′-trehalose]
- IL-6-releasing activity (mouse plasma IL-6 concentration) compared with TDCM [1]: approximately a half of
- IFN-γ-releasing activity (mouse plasma IFN-γ concentration) compared with TDCM [1]: approximately a half of

Structure (SMILES): CCCCCCCCCCCCCCC(CCCCCCCCCCCCCC)CC(=O)OCC1O[C@H](O[C@H]2OC(COC(=O)CC(CCCCCCCCCCCCCC)CCCCCCCCCCCCCC)[C@@H](O)C(O)C2O)C(O)C(O)[C@@H]1O (stereo partly drawn) [Example 14, 6,6′-bis-O-(3-tetradecylheptadecanoyl)-α,α′-trehalose]
- IL-6-releasing activity (mouse plasma IL-6 concentration) compared with TDCM [1]: approximately equivalent to
- IFN-γ-releasing activity (mouse plasma IFN-γ concentration) compared with TDCM [1]: approximately equivalent to

Structure (SMILES): CCCCCCCCCCCCCCC[C@@H](O)[C@@H](CCCCCCCCCCCCCC)C(=O)OC[C@H]1O[C@H](O[C@H]2O[C@H](COC(=O)[C@H](CCCCCCCCCCCCCC)[C@H](O)CCCCCCCCCCCCCCC)[C@@H](O)[C@H](O)[C@H]2O)[C@H](O)[C@@H](O)[C@@H]1O [TDCM, trehalose dicorynomycolate, reference compound]
- Number of surviving mice/number of treated mice, 2 hours later [2]: 4/4
- Number of surviving mice/number of treated mice, 6 hours later [2]: 4/4
- Number of surviving mice/number of treated mice, 12 hours later [2]: 4/4
- Number of surviving mice/number of treated mice, 24 hours later [2]: 2/4
- Number of surviving mice/number of treated mice, 48 hours later [2]: 2/4
- Number of surviving mice/number of treated mice, 2 hours later ([3]; 2 hours later): 4/4
- Number of surviving mice/number of treated mice, 6 hours later ([3]; 6 hours later): 4/4
- Number of surviving mice/number of treated mice, 12 hours later ([3]; 12 hours later): 4/4
- Number of surviving mice/number of treated mice, 24 hours later ([3]; 24 hours later): 4/4
- Number of surviving mice/number of treated mice, 48 hours later ([3]; 48 hours later): 4/4

Structure (SMILES): Nc1ccc2cc3ccccc3cc2c1 [2-aminoanthracene, reference compound]
- mutagenicity (Ames test, number of His colonies) [4]: positive
